Patent publication US20110230352A1, “TREATMENT PROCESS FOR A SUPERIOR PLANT IN ORDER TO CONTROL ITS GROWTH AND ARCHITECTURE” (INSTITUT NATIONAL DE LA RECHERCHE AGRONOMIQUE, priority 2008, published 2011)
Entries after “also recorded” stand apart in the source; their conditions may differ.

How the values were obtained:
[1] = system: mutants rms1 (line M3T-884 from wild pea WT Térèse); assay: Comparison of GR24, molecule ABC and sorgolactone by local application onto buds at node 4; format: in vivo; settings: mutant rms1; 100 nM and 500 nM, 10 μl per bud; nine days after the treatment; FIG. 3
Description: A second experiment is carried out on mutants rms1 (line M3T-884 from wild pea WT Térèse) in order to compare on these mutants the effect of synthetic strigolactone GR24, of a synthetic molecule ABC from GR24, without any cycle D characteristic of strigolactone, and Sorgolactone, a natural strigolactone.
The plants used are obtained in the same manner as for the plants used in the first experiment.
The solution containing synthetic strigolactone GR24 at 0 nM, 100 nM and 500 nM (4% PEG 1450, 10% ethanol) is applied with the help of a micropipette onto the buds at the node 4 (N4), at the rate of 10 μl per bud.
(§1) The buds and/or ramifications at the first two plant nodes N1 and N2 are cut at the time of the treatment.
The size of the buds at the upper nodes (node N4) is measured nine days after the treatment. The results of the bud growth are illustrated in the chart in FIG. 3.

[2] = system: mutants rms1 (line M3T-884 from wild pea WT Térèse); assay: Local application of strigolactone onto axillary buds at node 4, bud growth; format: in vivo; settings: mutant rms1; 100 nM, 10 μl per bud; eight days after the treatment; FIG. 2
Description: (§2) A first experiment is carried out simultaneously on mutants rms1 (line M3T-884 from wild pea WT Térèse) and rms4 (line M3T-946 from wild pea WT Térèse).
(§3) 9 seeds are used for each treatment; they are sowed in pots (3 plants per pot) in soil mixed to clay balls. The seedling is carried out under glass with a light period of 16 h light/8 h night.
(§4) The treatment is carried out 10 days after the seedling (Stage with 4 leaves).
(§5) A solution containing synthetic strigolactone GR24 dissolved in acetone at 0 nM and 100 nM (4% PEG 1450, 25% ethanol, 5^0/00 acetone) is applied with the help of a micropipette onto the buds at the node 4 (N4), at the rate of 10 μl per bud.
(§6) The buds and/or ramifications at the first two plant nodes N1 and N2 are cut for favoring the start of the buds at upper nodes.
(§7) The untreated plants correspond to the plants the buds and/or ramifications of which at nodes 1 and 2 have been cut but which have not received any treatment. The control “0 nM” corresponds to the plants treated with the same solution as for the treatment “500 nM” but without any strigolactones.

[3] = system: mutants rms4 (line M3T-946 from wild pea WT Térèse); assay: as above; format: in vivo; settings: mutant rms4; 100 nM, 10 μl per bud; eight days after the treatment; FIG. 2
Description: as §2, §3, §4, §5, §6, §7

[4] = system: mutants rms1 (line WL5237 from WT Térèse); assay: Decapitation after treatment of buds at node 3; format: in vivo, pea; settings: 1000 nM, two applications, decapitated nine days after the treatment, measured seven days after decapitation, FIG. 7B
Description: A first experiment is carried out simultaneously on wild peas (line WT Parvus) and mutants rms1 (line WL5237 from […]). In this experiment, 18 seeds are used for each treatment, which are sowed in pots (2 plants per pot with a diameter of 15 cm) in a soil mixed with sand. The seedling is carried out under glass with natural light and with an extension of the light period of 18 h light/6 h night be means of incandescent bulbs (60 W).
In a first stage, the plants are treated by two successive applications, separated by a 24 hour interval, of a solution (2% PEG 3550, 50% ethanol) containing synthetic strigolactone GR24 at 0 nM or 1000 nM. The solution is applied with the help of a micropipette onto the buds at the node 3 (N3), at the rate of 10 μl per bud.
as §1
The size of the treated buds is measured seven days after the treatment. The chart in FIG. 7A illustrates the results obtained with the buds at the N3.
In a second stage, a first half of the treated mutant plants rms1 are decapitated just above the node 3, nine days after the treatment, the second half is left intact. The buds and/or ramifications at node 3 of the treated plants at 0 nM (which have not been repressed) are cut.
The bud size is measured seven days after the decapitation. […]

[5] = system: mutants rms1 (line WL5237 from wild pea WT Parvus); assay: Local application onto buds at node 3 of plants of different ages; format: in vivo; settings: 1000 nM applied on two days, 9 to 13 day-old plants, buds 0.2 to 1 mm at first treatment, three and seven days after, FIG. 5A
Description: A first experiment is carried out on mutants rms1 (line WL5237 from wild pea WT Parvus) in order to compare the effect of synthetic strigolactones GR24 on the size of the treated buds at the time of the treatment.
In this experiment, 20 seeds are used for each treatment, which are sowed in pots (2 plants per pot with a diameter of 15 cm) in a soil mixed to clay balls. The seedling is carried out under glass with a natural light and with an extension of the light period of 18 h light/6 h night by means of incandescent bulbs (60 W).
On the first day of treatment, a solution containing synthetic strigolactone GR24 at 0 nM and 1000 nM (4% PEG 1450, 10% ethanol) is applied with the help of a micropipette onto the buds at the node 3 (N3), at the rate of 10 μl per bud.
On the second day of treatment, a solution containing synthetic strigolactone GR24 at 0 nM and 1000 nM (4% PEG 1450, 10% ethanol) is applied with the help of a micropipette onto the same buds, at the rate of 10 μl per bud.
as §1
The first treatment is carried out on 9, 10, 11, 12 and 13 day-old plants (the seedling were spread out over five days).
The bud size at the node N3 is measured the day of the first treatment (J0) and three and seven days afterwards. The obtained results are illustrated in the charts in FIG. 5A.

[6] = system: mutants rms1 (line M3T-988 from WT Térèse); assay: Injection into the stem above node N3, size of bud at N5 (long-distance, dose-response); format: in vivo, pea; settings: rms1 M3T-988; injected 1, 10, 100, 500 nM; eight days after the treatment; FIG. 6
Description: To this end, an experiment is carried out on mutants rms1 (line M3T-988 from WT Térèse) obtained in the same manner as for the mutants used in the preceding experiments.
The plants are treated by injecting the solution into the stem above the node N3. More precisely, a cotton thread is introduced into the plant stem with the help of needle and is dipped into the solution to be tested. The GR24 solution used (0 nM, 1 nM, 10 nM, 100 nM and 500 nM) were prepared by diluting in water GR24 solutions kept in acetone at different concentrations so that they have the same volume of acetone (10 μl of acetone in 20 ml of water).
as §1
The “untreated” plants correspond to control plants the ramifications N1 and N2 of which have been cut, but which have not received any injection.
The size of the buds at the node situated a distance above the injection zone (N5) is measured eight days after the treatment.

[7] = system: wild pea (line WT Térèse) and mutant pea (line M3T-988 ccd8/rms1 from WT Térèse); assay: Application through the roots in hydroponic solution, internodal length and ramification length; format: in vivo
Description: To this end, an experiment is carried out in a hydroponic solution in order to bring GR24 into the hydroponic solution through the roots.
In this experiment, wild pea seeds (line WT Térèse) and mutant pea seeds (line M3T-988 ccd8/rms1 from WT Térèse) are first sowed in sand. Eight days later, the resulting plants are brought into the hydroponic system in which the roots are dipped in the nutritive solution. Four days later, a GR24 solution (diastereo isomer no 1) is added to 1 μM in the 47 liters of nutritive solution (4.7 ml GR24 at 10 mM). In this experiment, the plants reach the stage with 3-4 nodes.
Then, the cotyledonal ramifications are removed. The ramifications at the nodes N1 and N2 are kept.
The observation is carried out seven days later after addition of GR24 in the solution.
FIG. 10 represents the internodal length measured 19 days later after the germination on treated and untreated wild plants on one hand and treated and untreated mutant plants on the other hand.
FIG. 11 represents the ramification length (ramifications 3 at node N4) measured 19 days later on treated and untreated wild plants on one hand and treated and untreated mutant plants on the other hand. The ramifications at nodes N1 and N2 have already started at the time of the addition of GR24.

wild peas WT Térèse = assay: Local application onto buds at node 2 of wild pea; format: in vivo; settings: 500 nM, 10 μl per bud, eight days after the treatment, FIG. 4
Description: To this end, a third experiment is carried out on wild peas WT Térèse. The plants used are obtained in a identical manner as for the plants used in the first experiment.
The treatment is carried out 10 days after the seedling (stage with 4 to 5 leaves).
A solution containing synthetic strigolactone GR24 at 0 nM and 500 nM (4% PEG, 10% ethanol) is applied with the help of a micropipette onto the buds at the node 2 (N2), at the rate of 10 μl per bud.
The buds and/or ramifications at the first plant node N1 are cut at the time of the treatment.
The bud size at the node N2 is measured eight days after the treatment, the results being plotted in the chart in FIG. 4.

O=C1OC2c3ccccc3CC2/C1=C\O (stereo not drawn) [ABC]
bud growth at node N4, comparison of effects [1]: less efficient than GR24 and sorgolactone

CC1=CC(O/C=C2/C(=O)OC3c4ccccc4CC23)OC1=O (stereo not drawn) [GR24]
bud growth at N4 [2]: strongly repressed; also recorded: inhibit the growth of said treated buds | bud growth at N4 [3]: not repressed in a significant manner | bud size at N3 after decapitation of plants with buds first inhibited [4]: able to start again when the plant is decapitated | bud size at the node N3, sensitivity of buds of different ages [5]: all sensitive to the treatment | bud growth at node N4, comparison of effects [1]: comparable effects | concentration from which injection above N3 represses the growth of the bud at N5 [6]: ≥ 10 nM | internodal length, from internode N4-N5 ([7]; 1 μM in hydroponic solution through the roots, wild and rms1 mutant, 19 days after germination, FIG. 10): has an effect only from the internode N4-N5 | ramification length / bud start ([7]; 1 μM in hydroponic solution through the roots, wild and rms1 mutant, measured 19 days later, FIG. 11): induces a reduction of the ramification length | internodal length, internodes N1-N2, N2-N3 and N3-N4 ([7]; 1 μM in hydroponic solution, internodes already developed before addition, FIG. 10): has no action | bud size at the node N2 (wild peas WT Térèse): has also an action on the growth of the buds

CC1=C[C@H](O/C=C2/C(=O)O[C@@H]3C4=C(CCC[C@@H]4C)C[C@H]23)OC1=O [sorgolactone, Sorgolactone]
bud growth at node N4, comparison of effects [1]: comparable effects
